Data taken from the NIST ThermoML archive (doi:10.1021/acs.jced.9b00535).
Numbers after ± are expanded uncertainties.

Settings: Liquid, Ebulliometric method (Recirculating still)

With `CC(=O)CC(C)C` [4-methylpentan-2-one] as the compound, how does the “vapor or sublimation pressure” value (389.15 K) read?
Its value is 101.3 ± 3 kPa.

For `CC(=O)N(C)C` [N,N-dimethylethanamide], which “vapor or sublimation pressure” value (439.15 K) is on record?
Its value is 101.3 ± 3 kPa.

Which “vapor or sublimation pressure” value (390.75 K) does the source give for `CCCCO` [butan-1-ol] here?
Its value is 101.3 ± 3 kPa.
